Literature values, collected in patent US11529304B2, “Method for dyeing keratin material by means of a dyeing agent and an acidic posttreatment agent” (Henkel AG & Co. KGaA, priority 2018, dated 2022).

Details: for solubility in water: 25° C.

Compound | solubility in water (in words) (at 25° C.) | solubility in water
O=C([O-])C1=NN(c2ccc(S(=O)(=O)[O-])cc2)C(=O)C1N=Nc1ccc(S(=O)(=O)[O-])cc1.[Na+].[Na+].[Na+] (centres unmarked) [Acid Yellow 23] | highly soluble | –
O=S(=O)([O-])c1ccc(N=Nc2c(O)ccc3ccccc23)cc1.[Na+] [Acid Orange 7, sodium salt of 4-[(2-hydroxy-1-naphthyl)azo]benzene sulphonate] | – | more than 7 g/L
Nc1cc(S(=O)(=O)[O-])cc2cc(S(=O)(=O)[O-])c(N=Nc3ccccc3)c(O)c12.[Na+].[Na+] [Acid Red 33, diantrium salt of 5-amino-4-hydroxy-3-(phenylazo)-naphthalene-2,7-disulphonate] | – | 2.5 mg/mL
O=C([O-])c1c(Cl)c(Cl)c(Cl)c(Cl)c1-c1c2c(Br)cc(=O)c(Br)c-2oc2c(Br)c(O)cc(Br)c12.O=C([O-])c1c(Cl)c(Cl)c(Cl)c(Cl)c1-c1c2c(Br)cc(=O)c(Br)c-2oc2c(Br)c(O)cc(Br)c12.[Na+].[Na+] [Acid Red 92, disodium salt of 3,4,5,6-tetrachloro-2-(1,4,5,8-tetrabromo-6-hydroxy-3-oxoxanthen-9-yl)benzoic acid] | – | greater than 10 g/L
mixture of the sodium salts of mono- and sisulfonic acids of 2-(2-quinolyl)-1H-indene-1,3(2H)-dione [Acid Yellow 3] | – | 20 mg/mL
